What was measured:
[1] = target: T1, CYP3A4 (Homo sapiens, UniProt P08684); experiment: ROS-based fluorescence assay (DCFH-DA oxidation) of inhibition of CYP3A4-mediated testosterone oxidation; conditions: ROS-based IC50, recombinant CYP3A4 microsomes, testosterone substrate 40 μM
Description: (§1) 1′-hydroxymidazolam and microsomes (SUPERSOMES™) prepared from baculovirus-infected insect cells containing recombinant heterologously expressed human CYP plus NADPH CYP reductase were purchased from GenTest Corp. (Woburn, Mass., United States of America). 6β-hydroxytestosterone and 11α-hydroxyprogesterone were obtained from Steraloids Inc. (Wilton, N.H., United States of America).
Stock solutions of DCFH-DA (2.5 mM) and NADPH (20 mM) were prepared prior to each experiment in methanol and buffer, respectively. Substrates and inhibitors were prepared in 100% methanol and stored at −20° C. […] Unless otherwise indicated, testosterone were added to the reactions at a final concentration of 40 μM. An equal volume of methanol was added to samples containing no substrate and served as controls. Reactions were performed at 37° C. in 96-well black bottom plates. Inhibitors were added at varying concentrations from stock solutions prepared in either water or methanol. Final methanol concentrations were kept constant among samples (1%, v/v) to eliminate variability in the rate of fluorescence production due to the effect of methanol on CYP activity. […] The concentration of DCF in the reactions was determined using a standard curve constructed with authentic DCF. […]

[2] = target: T1, CYP3A4; experiment: Conventional LC-UV assay quantifying 6β-hydroxytestosterone formation by CYP3A4; conditions: LC-based IC50, recombinant CYP3A4 microsomes, testosterone substrate, LC-UV quantification of 6β-hydroxytestosterone
Description: as §1
Inhibition of CYP3A4-mediated oxidation of testosterone was measured by 6β-hydroxytestosterone formation. The kinetics of 6β-hydroxytestosterone formation by CYP3A4 was determined and compared to rate of fluorescence production. Reactions consisted of varying concentrations of testosterone, 50 pmol CYP3A4 per ml, and buffer to a final volume of one milliliter. Reactions were performed at 37° C. and were started upon addition of 1 mM NADPH. […] Samples were placed immediately on ice and the precipitated protein was removed by centrifugation for four minutes at 13,000 rpm. The supernatant was transferred to HPLC vials for analysis.
HPLC analysis was performed using an Agilent 1100 Series HPLC system (Agilent Technologies, Palo Alto, Calif., United States of America) equipped with an online UV-detector. […]

T1 sequence (P08684 2-503 limits assumed): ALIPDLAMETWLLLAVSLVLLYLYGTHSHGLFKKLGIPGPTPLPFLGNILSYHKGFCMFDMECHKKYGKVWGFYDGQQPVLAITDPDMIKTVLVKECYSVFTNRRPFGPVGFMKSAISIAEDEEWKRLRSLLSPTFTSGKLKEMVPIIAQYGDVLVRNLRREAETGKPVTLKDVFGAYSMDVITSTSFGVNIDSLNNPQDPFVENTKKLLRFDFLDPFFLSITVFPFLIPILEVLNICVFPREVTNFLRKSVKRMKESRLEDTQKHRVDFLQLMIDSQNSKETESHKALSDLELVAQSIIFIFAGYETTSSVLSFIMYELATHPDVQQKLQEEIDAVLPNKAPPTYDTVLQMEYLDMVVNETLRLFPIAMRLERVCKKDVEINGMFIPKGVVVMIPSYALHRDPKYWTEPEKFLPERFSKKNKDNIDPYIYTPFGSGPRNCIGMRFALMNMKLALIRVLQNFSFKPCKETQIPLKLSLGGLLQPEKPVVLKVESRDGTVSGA

IC50 [1] [µM] | IC50 [2] [µM] | SMILES
27.6 | 1.7 | CC[C@H]1OC(=O)[C@H](C)[C@@H](O[C@H]2C[C@@](C)(OC)[C@@H](O)[C@H](C)O2)[C@H](C)[C@@H](O[C@@H]2O[C@H](C)C[C@H](N(C)C)[C@H]2O)[C@](C)(O)C[C@@H](C)C(=O)[C@H](C)[C@@H](O)[C@]1(C)O [Erythromycin]
27.6 | 22.6 | CC(=O)[C@H]1CC[C@H]2[C@@H]3CCC4=CC(=O)CC[C@]4(C)[C@H]3CC[C@]12C [Progesterone]

Source: patent US20060223135A1, “High throughput reactive oxygen species-based cytochrome P450 inhibition assay” (The University of North Carolina at Chapel Hill, priority 2005, published 2006)
